Data on 25 compounds can be found in patent US10800792B2, “Inhibitors of Bruton's tyrosine kinase and method of their use” (JANSSEN PHARMACEUTICA NV, priority 2015, dated 2020).

This assay deals with unphosphorylated-BTK kinase domain (UP-BTK), GST-tagged human BTK (389-659aa) (Homo sapiens (Human), UniProt Q06187). In words: BTK kinase Lanthascreen binding assay. The conditions noted are these: pIC50 = negative log of the IC50 in molar, 60 minutes incubation, 50 nM Tracer 236; for IC50: read-out: BTK_I_binding pIC50 (converted). The method in brief:
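A fluorescent tracer is bound to unphosphorylated BTK; test compound is added to compete it off; the Lanthascreen signal is read and IC50 is fitted, then reported as its negative log in molar.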
In general terms: TR-FRET usually uses a lanthanide donor and a delayed reading to cut background.

Structures are written as SMILES.

unphosphorylated-BTK kinase domain (UP-BTK), GST-tagged human BTK (389-659aa), sequence (Q06187 389-659): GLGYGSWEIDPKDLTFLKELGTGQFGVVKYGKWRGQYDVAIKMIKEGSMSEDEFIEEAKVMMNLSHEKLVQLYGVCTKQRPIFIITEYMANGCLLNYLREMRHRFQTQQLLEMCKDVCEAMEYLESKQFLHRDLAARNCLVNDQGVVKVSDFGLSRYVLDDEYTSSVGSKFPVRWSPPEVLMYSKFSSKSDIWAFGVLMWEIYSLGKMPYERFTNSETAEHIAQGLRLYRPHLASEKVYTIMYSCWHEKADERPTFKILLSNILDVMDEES

As for `Cc1cc(Oc2ccccc2)ccc1N1C(=O)Nc2c(C(=O)N[C@@H]3CCCN(C(=O)CN(C)C)C3)sc3nccc1c23` [Example 78, (R)—N-(1-(2-(Dimethylamino)acetyl)piperidin-3-yl)-5-(2-methyl-4-phenoxyphenyl)-4-oxo-4,5-dihydro-3H-1-thia-3,5,8-triazaacenaphthylene-2-carboxamide], the “BTK_I_binding pIC50” value is 7.3.

For the compound `N#C/C(=C\C1CC1)C(=O)N1CCC[C@@H](NC(=O)c2sc3nccc4c3c2NC(=O)N4c2ccc(Oc3ccccc3)cc2F)C1` [Example 79, (R,E)-N-(1-(2-Cyano-3-cyclopropylacryloyl)piperidin-3-yl)-5-(2-fluoro-4-phenoxyphenyl)-4-oxo-4,5-dihydro-3H-1-thia-3,5,8-triazaacenaphthylene-2-carboxamide], the “BTK_I_binding pIC50” value was 7.5. The same measure, in the same setting: to `C=CC(=O)N1CC[C@@H](NC(=O)c2sc3nccc4c3c2NC(=O)N4c2c(C)cc(Oc3ccccc3)cc2C)C1` [Example 81, (R)—N-(1-Acryloylpyrrolidin-3-yl)-5-(2,6-dimethyl-4-phenoxyphenyl)-4-oxo-4,5-dihydro-3H-1-thia-3,5,8-triazaacenaphthylene-2-carboxamide] belongs 6.6; to `C=CC(=O)N1CCC[C@@H](NC(=O)c2sc3nccc4c3c2NC(=O)N4c2ccc(S(F)(F)(F)(F)F)cc2C)C1` [Example 83, (R)—N-(1-Acryloylpiperidin-3-yl)-5-(2-methyl-4-(pentafluorothio)phenyl)-4-oxo-4,5-dihydro-3H-1-thia-3,5,8-triazaacenaphthylene-2-carboxamide], 6.8. Take `C=CC(=O)N1CCC[C@@H](NC(=O)c2sc3nccc4c3c2NC(=O)N4c2ccc(C)cc2C)C1` [Example 86, (R)—N-(1-Acryloylpiperidin-3-yl)-5-(2,4-dimethylphenyl)-4-oxo-4,5-dihydro-3H-1-thia-3,5,8-triazaacenaphthylene-2-carboxamide]: the “BTK_I_binding pIC50” value came out at 6.7. Consider `COCCC(=O)N1CCC[C@@H](NC(=O)c2sc3nccc4c3c2NC(=O)N4c2ccc(Oc3ccccc3)c(F)c2C)C1` [Example 89, (R)-5-(3-Fluoro-2-methyl-4-phenoxyphenyl)-N-(1-(3-methoxypropanoyl)piperidin-3-yl)-4-oxo-4,5-dihydro-3H-1-thia-3,5,8-triazaacenaphthylene-2-carboxamide], for which the “BTK_I_binding pIC50” value was found to be 7.1. On the same count and under the same terms, to `Cc1cc(Oc2ccccc2)ccc1N1C(=O)Nc2c(C(=O)N[C@H]3CCOC3)sc3nccc1c23` [Example 90, (S)-5-(2-Methyl-4-phenoxyphenyl)-4-oxo-N-(tetrahydrofuran-3-yl)-4,5-dihydro-3H-1-thia-3,5,8-triazaacenaphthylene-2-carboxamide] belongs 7.5; to `CNCC(=O)N1CCC[C@@H](NC(=O)c2sc3nccc4c3c2NC(=O)N4c2ccc(Oc3ccccc3)cc2C)C1` [Example 91, (R)-5-(2-Methyl-4-phenoxyphenyl)-N-(1-(2-(methylamino)acetyl)piperidin-3-yl)-4-oxo-4,5-dihydro-3H-1-thia-3,5,8-triazaacenaphthylene-2-carboxamide], 7.3; to `COCCC(=O)N1C[C@@H](F)[C@@H](NC(=O)c2sc3nccc4c3c2NC(=O)N4c2ccc(Oc3ccccc3)cc2C)C1` [Example 94, N-((3S,4R)-4-Fluoro-1-(3-methoxypropanoyl)pyrrolidin-3-yl)-5-(2-methyl-4-phenoxyphenyl)-4-oxo-4,5-dihydro-3H-1-thia-3,5,8-triazaacenaphthylene-2-carboxamide], 7.6. The same measure, in the same setting: to `COCC(=O)N1CCC[C@@H](NC(=O)c2sc3nccc4c3c2NC(=O)N4c2ccc(Oc3ccccc3)cc2C)C1` [Example 95, (R)—N-(1-(2-Methoxyacetyl)piperidin-3-yl)-5-(2-methyl-4-phenoxyphenyl)-4-oxo-4,5-dihydro-3H-1-thia-3,5,8-triazaacenaphthylene-2-carboxamide] belongs 7.4; to `Cc1cc(Oc2ccccc2)ccc1N1C(=O)Nc2c(C(=O)NC3CCCCN(C#N)C3)sc3nccc1c23` (stereo not shown) [Example 97, N-(1-Cyanoazepan-3-yl)-5-(2-methyl-4-phenoxyphenyl)-4-oxo-4,5-dihydro-3H-1-thia-3,5,8-triazaacenaphthylene-2-carboxamide], 6.9.

Consider `Cc1cc(Oc2ccccc2)ccc1N1C(=O)Nc2c(C(=O)N[C@@H]3CCCN(C(C)C)C3)sc3nccc1c23` [Example 101, (R)—N-(1-Isopropylpiperidin-3-yl)-5-(2-methyl-4-phenoxyphenyl)-4-oxo-4,5-dihydro-3H-1-thia-3,5,8-triazaacenaphthylene-2-carboxamide], for which the “BTK_I_binding pIC50” value stood at 6.8. For the compound `Cc1cc(OC(C)C)ccc1N1C(=O)Nc2c(C(=O)N[C@@H]3CCCN(C(=O)/C(C#N)=C/C4CC4)C3)sc3nccc1c23` [Example 102, (R,E)-N-(1-(2-Cyano-3-cyclopropylacryloyl)piperidin-3-yl)-5-(4-isopropoxy-2-methylphenyl)-4-oxo-4,5-dihydro-3H-1-thia-3,5,8-triazaacenaphthylene-2-carboxamide], the “BTK_I_binding pIC50” value came out at 7.5. Take `Cc1cc(Oc2ccccc2)ccc1N1C(=O)Nc2c(C(=O)NC3CCC(C)N(C)C3)sc3nccc1c23` (stereo not shown) [Example 103, N-(1,6-Dimethylpiperidin-3-yl)-5-(2-methyl-4-phenoxyphenyl)-4-oxo-4,5-dihydro-3H-1-thia-3,5,8-triazaacenaphthylene-2-carboxamide]: the “BTK_I_binding pIC50” value is 6.7.

`Cc1cc(Oc2ccccc2)ccc1N1C(=O)Nc2c(C(=O)N[C@@H]3CCN(C(=O)CCS(C)(=O)=O)C3)sc3nccc1c23` [Example 104, (R)-5-(2-Methyl-4-phenoxyphenyl)-N-(1-(3-(methylsulfonyl)propanoyl)pyrrolidin-3-yl)-4-oxo-4,5-dihydro-3H-1-thia-3,5,8-triazaacenaphthylene-2-carboxamide]: the “BTK_I_binding pIC50” value was found to be 7.7.

`C/C=C/C(=O)N1CCC[C@@H](NC(=O)c2sc3nccc4c3c2NC(=O)N4c2ccc(Oc3ccccc3)cc2C)C1` [Example 105, (R,E)-N-(1-(But-2-enoyl)piperidin-3-yl)-5-(2-methyl-4-phenoxyphenyl)-4-oxo-4,5-dihydro-3H-1-thia-3,5,8-triazaacenaphthylene-2-carboxamide]: the “BTK_I_binding pIC50” value came out at 6.9. Still for that read-out and setting: as for `CNCCC(=O)N1CCC[C@@H](NC(=O)c2sc3nccc4c3c2NC(=O)N4c2ccc(Oc3ccccc3)cc2C)C1` [Example 106, (R)-5-(2-Methyl-4-phenoxyphenyl)-N-(1-(3-(methylamino)propanoyl)piperidin-3-yl)-4-oxo-4,5-dihydro-3H-1-thia-3,5,8-triazaacenaphthylene-2-carboxamide], the figure is 7.3; as for `O=C(N[C@@H]1CCCNC1)c1sc2nccc3c2c1NC(=O)N3c1ccc(Oc2ccccc2)cc1F` [Example 107, (R)-5-(2-Fluoro-4-phenoxyphenyl)-4-oxo-N-(piperidin-3-yl)-4,5-dihydro-3H-1-thia-3,5,8-triazaacenaphthylene-2-carboxamide], 7.5; as for `Cc1cc(Oc2ccccc2)ccc1N1C(=O)Nc2c(C(=O)N[C@@H]3CCOC3)sc3nccc1c23` [Example 108, (R)-5-(2-Methyl-4-phenoxyphenyl)-4-oxo-N-(tetrahydrofuran-3-yl)-4,5-dihydro-3H-1-thia-3,5,8-triazaacenaphthylene-2-carboxamide], 7.5. Turning to `C=CC(=O)N1CC(NC(=O)c2sc3nccc4c3c2NC(=O)N4c2ccc(Oc3ccccc3)cc2C)C1` [Example 109, N-(1-Acryloylazetidin-3-yl)-5-(2-methyl-4-phenoxyphenyl)-4-oxo-4,5-dihydro-3H-1-thia-3,5,8-triazaacenaphthylene-2-carboxamide], the “BTK_I_binding pIC50” value is recorded as 7.2. For the compound `COc1ccc(N2C(=O)Nc3c(C(=O)N[C@@H]4CCCN(C(=O)C=[13CH2])C4)sc4nccc2c34)c(C)c1` [Example 110, (R)—N-(1-^13C-Acryloylpiperidin-3-yl)-5-(4-methoxy-2-methylphenyl)-4-oxo-4,5-dihydro-3H-1-thia-3,5,8-triazaacenaphthylene-2-carboxamide], the IC50 was 158 nM. Take `COC[C@@H](N)C(=O)N1CCC[C@@H](NC(=O)c2sc3nccc4c3c2NC(=O)N4c2ccc(Oc3ccccc3)cc2C)C1` [Example 111, N—((R)-1-((R)-2-Amino-3-methoxypropanoyl)piperidin-3-yl)-5-(2-methyl-4-phenoxyphenyl)-4-oxo-4,5-dihydro-3H-1-thia-3,5,8-triazaacenaphthylene-2-carboxamide]: the IC50 was 63.1 nM. Regarding `Cc1c(N2C(=O)Nc3c(C(=O)N[C@@H]4CCCN(C(=O)CCS(C)(=O)=O)C4)sc4nccc2c34)ccc(Oc2ccccc2)c1F` [Example 113, (R)-5-(3-Fluoro-2-methyl-4-phenoxyphenyl)-N-(1-(3-(methylsulfonyl)propanoyl)piperidin-3-yl)-4-oxo-4,5-dihydro-3H-1-thia-3,5,8-triazaacenaphthylene-2-carboxamide], the “BTK_I_binding pIC50” value was found to be 7.3. Still for that read-out and setting: to `Cc1c(N2C(=O)Nc3c(C(=O)N[C@@H]4CCCN(C(=O)CO)C4)sc4nccc2c34)ccc(Oc2ccccc2)c1F` [Example 114, (R)-5-(3-Fluoro-2-methyl-4-phenoxyphenyl)-N-(1-(2-hydroxyacetyl)piperidin-3-yl)-4-oxo-4,5-dihydro-3H-1-thia-3,5,8-triazaacenaphthylene-2-carboxamide] belongs 7.3; to `COCC(=O)N1CCC[C@@H](NC(=O)c2sc3nccc4c3c2NC(=O)N4c2ccc(Oc3ccccc3)c(F)c2C)C1` [Example 115, (R)-5-(3-Fluoro-2-methyl-4-phenoxyphenyl)-N-(1-(2-methoxyacetyl)piperidin-3-yl)-4-oxo-4,5-dihydro-3H-1-thia-3,5,8-triazaacenaphthylene-2-carboxamide], 7.4.
